Assay results from US20240254140A1, “COMPOUNDS AND THEIR USE IN THE TREATMENT OF BACTERIAL INFECTION” (Hoffmann-La Roche Inc., priority 2021, published 2024).
Values after ≈ are worked out from the molar mass of the structure shown.

Tested on: Escherichia coli ATCC 25922
Assay: Minimal Inhibitory Concentration (MIC) determination, broth microdilution
Assay type: cell-based
Conditions: ATCC25922; strain Escherichia coli ATCC 25922; broth microdilution per CLSI M07-A10; 18-24 hours at 35±2° C.; lowest concentration for complete growth inhibition
Description: Minimal Inhibitory Concentration (MIC) Determination:
The MIC of antibacterial compounds against multiple species and strains was determined using the broth microdilution method according to M07-A10 Clinical and Laboratory Standards Institute (CLSI) guidelines, using the appropriate broth medium. In short, the compound plates were prepared by dispensing 100 μL of each stock solution in the first well of a 96 well microtiter plate (MTP) at a concentration 100-fold higher than the final concentration desired in broth. Eleven serial 2-fold dilutions of the highest concentration were made in DMSO for new compounds and in water (or appropriate solution) for reference compounds [2]. 1 μL of each well was transferred in a new MTP, which served as the test plate by subsequent inoculation. This bacterial suspension was prepared from strains that were first sub-cultured on agar plates and incubated for 18-24 hours as appropriate. Following incubation, the inoculum was prepared from isolated colonies and adjusted to 0.5 McFarland turbidity standard (1 to 2×10^8 Colony Forming Units (CFU)/mL) in 0.9% saline. The bacterial suspension was then diluted 1:200 in appropriate sterile medium and within 15 minutes 100 μL/well were dispensed. Negative controls (lack of bacterial cells) and growth control wells (lack of compound) were included in all plates. MTPs were incubated for 18-24 hours at 35±2° C. in ambient air. The MIC value of each compound, expressed as μg/mL, was determined as the lowest concentration required for complete growth inhibition (no visible growth). • [1] CLSI (2015) Methods for dilution antimicrobial susceptibility tests for bacteria that grow aerobically; Approved Standard, Tenth Edition. CLSI Document M7-A10 (ISBN 1-56238-987-4). Wayne, PA: Clinical and Laboratory Standards Institute, 19087, USA. • [2] CLSI (2017) Performance Standards for Antimicrobial Susceptibility Testing; Twenty-Fifth Informational Supplement. CLSI Document M100-S27, CLSI, Wayne, Pennsylvania 19087, USA.
Table 1 provides the Minimal Inhibitory Concentrations (MIC) in micrograms per millilitre of the compounds of present invention obtained against the strain Escherichia coli ATCC 25922.

SMILES	MIC [µg/mL]
Cc1cc(NC(=O)[C@@H]2CCCN2C)nc2c1CC(CNCCC1CN(c3cnc4c(n3)NC(=O)CO4)C(=O)O1)C2 (stereo partly drawn) [Example 27, (2S)-1-methyl-N-[4-methyl-6-[[2-[2-oxo-3-(3-oxo-4H-pyrazino[2,3-b][1,4]oxazin-6-yl)oxazolidin-5-yl]ethylamino]methyl]-6,7-dihydro-5H-cyclopenta[b]pyridin-2-yl]pyrrolidine-2-carboxamide]	1 (≈ 1.82 µM)
Cc1nc(NC(=O)[C@@H](C)N(C)C)cc2c1CC(CNCCC1CN(c3cnc4c(n3)NC(=O)CO4)C(=O)O1)C2 (stereo partly drawn) [Example 28, (2R)-2-(dimethylamino)-N-[1-methyl-6-[[2-[2-oxo-3-(3-oxo-4H-pyrazino[2,3-b][1,4]oxazin-6-yl)oxazolidin-5-yl]ethylamino]methyl]-6,7-dihydro-5H-cyclopenta[c]pyridin-3-yl]propanamide]	0.5 (≈ 0.928 µM)
Cc1nc(NC(=O)[C@@H](C)N(C)C)cc2c1CC(CN1CCC3(CC1)CN(c1cnc4c(n1)NC(=O)CO4)C(=O)O3)C2 (stereo partly drawn) [Example 29, (2R)-2-(dimethylamino)-N-[1-methyl-6-[[2-oxo-3-(3-oxo-4H-pyrazino[2,3-b][1,4]oxazin-6-yl)-1-oxa-3,8-diazaspiro[4.5]decan-8-yl]methyl]-6,7-dihydro-5H-cyclopenta[c]pyridin-3-yl]propanamide]	0.5 (≈ 0.886 µM)
C[C@H](C(=O)Nc1cc(F)c2c(c1F)CC(O)(CNCC1CN(c3cnc4c(n3)NC(=O)CO4)C(=O)O1)C2)N(C)C (some centres unmarked) [Example 30]	1 (≈ 1.78 µM)
COC1(CNCC2CN(c3cnc4c(n3)NC(=O)CO4)C(=O)O2)Cc2c(F)cc(NC(=O)[C@@H](C)N(C)C)c(F)c2C1 (some centres unmarked) [Example 31]	4 (≈ 6.95 µM)
C[C@H](C(=O)Nc1cc(F)c2c(c1)CC(F)(CNCCC1CN(c3cnc4c(n3)NC(=O)CO4)C(=O)O1)C2)N(C)C (stereo partly drawn) [Example 33, (2R)-N-[2,7-difluoro-2-[[2-[2-oxo-3-(3-oxo-4H-pyrazino[2,3-b][1,4]oxazin-6-yl)oxazolidin-5-yl]ethylamino]methyl]indan-5-yl]-2-(dimethylamino)propanamide]	0.5 (≈ 0.894 µM)
COC[C@@H](N)C(=O)Nc1cc(F)c2c(c1)CC(CNCCC1CN(c3cnc4c(n3)NC(=O)CO4)C(=O)O1)C2 (stereo partly drawn) [Example 39, (2R)-2-amino-N-[7-fluoro-2-[[2-[2-oxo-3-(3-oxo-4H-pyrazino[2,3-b][1,4]oxazin-6-yl)oxazolidin-5-yl]ethylamino]methyl]indan-5-yl]-3-methoxy-propanamide]	0.5 (≈ 0.92 µM)
Cl.N[C@@]1(C(=O)Nc2cc(F)c3c(c2)CC(CNCCC2CN(c4cnc5c(n4)NC(=O)CO5)C(=O)O2)C3)CCOC1 (stereo partly drawn) [Example 41, (3S)-3-amino-N-[7-fluoro-2-[[2-[2-oxo-3-(3-oxo-4H-pyrazino[2,3-b][1,4]oxazin-6-yl)oxazolidin-5-yl]ethylamino]methyl]indan-5-yl]tetrahydrofuran-3-carboxamide; hydrochloride]	1
O=C1COc2ncc(N3CC4(CCN(CC5Cc6cc(NC(=O)[C@@H]7C[C@@H](O)CN7)cc(F)c6C5)CC4)OC3=O)nc2N1 (stereo partly drawn) [Example 42, (2S,4R)—N-[7-fluoro-2-[[2-oxo-3-(3-oxo-4H-pyrazino[2,3-b][1,4]oxazin-6-yl)-1-oxa-3,8-diazaspiro[4.5]decan-8-yl]methyl]indan-5-yl]-4-hydroxy-pyrrolidine-2-carboxamide]	0.125 (≈ 0.215 µM)
CC(C)(N)C(=O)Nc1cc(F)c2c(c1)CC(CNCCC1CN(c3cnc4c(n3)NC(=O)CO4)C(=O)O1)C2 (centres unmarked) [Example 43, 2-amino-N-[7-fluoro-2-[[2-[2-oxo-3-(3-oxo-4H-pyrazino[2,3-b][1,4]oxazin-6-yl)oxazolidin-5-yl]ethylamino]methyl]indan-5-yl]-2-methyl-propanamide]	0.25 (≈ 0.474 µM)
O=C1COc2ncc(N3CC(CCNCC4Cc5cc(NC(=O)[C@@H]6C[C@H](O)CN6)cc(F)c5C4)OC3=O)nc2N1 (stereo partly drawn) [Example 46, (2S,4S)-N-[7-fluoro-2-[[2-[2-oxo-3-(3-oxo-4H-pyrazino[2,3-b][1,4]oxazin-6-yl)oxazolidin-5-yl]ethylamino]methyl]indan-5-yl]-4-hydroxy-pyrrolidine-2-carboxamide]	0.5 (≈ 0.9 µM)
N[C@@H](CC(=O)O)C(=O)Nc1cc(F)c2c(c1)CC(CNCCC1CN(c3cnc4c(n3)NC(=O)CO4)C(=O)O1)C2.O=C(O)C(F)(F)F (stereo partly drawn) [Example 48, (3S)-3-amino-4-[[7-fluoro-2-[[2-[2-oxo-3-(3-oxo-4H-pyrazino[2,3-b][1,4]oxazin-6-yl)oxazolidin-5-yl]ethylamino]methyl]indan-5-yl]amino]-4-oxo-butanoic acid; 2,2,2-trifluoroacetic acid]	4
C[C@@H](C(=O)Nc1cc(F)c2c(c1)CC(CN1CCC3(CC1)CN(c1cnc4c(n1)NC(=O)CO4)C(=O)O3)C2)N(C)C (stereo partly drawn) [Example 51, (2S)-2-(Dimethylamino)-N-[7-fluoro-2-[[2-oxo-3-(3-oxo-4H-pyrazino[2,3-b][1,4]oxazin-6-yl)-1-oxa-3,8-diazaspiro[4.5]decan-8-yl]methyl]indan-5-yl]propanamide]	0.125 (≈ 0.22 µM)

Results, then the molecule that gave them:

MIC [µg/mL]	SMILES
4 (≈ 7.08 µM)	C[C@H](C(=O)Nc1cc(C#N)c2c(c1)CC(O)(CNCCC1CN(c3cnc4c(n3)NC(=O)CO4)C(=O)O1)C2)N(C)C (stereo partly drawn) [Example 34, (2R)-N-[7-cyano-2-hydroxy-2-[[2-[2-oxo-3-(3-oxo-4H-pyrazino[2,3-b][1,4]oxazin-6-yl)oxazolidin-5-yl]ethylamino]methyl]indan-5-yl]-2-(dimethylamino)propanamide]
1 (≈ 1.69 µM)	C[C@H](C(=O)Nc1cc(C#N)c2c(c1)CC(O)(CN1CCC3(CC1)CN(c1cnc4c(n1)NC(=O)CO4)C(=O)O3)C2)N(C)C (stereo partly drawn) [Example 35, (2R)-N-[7-cyano-2-hydroxy-2-[[2-oxo-3-(3-oxo-4H-pyrazino[2,3-b][1,4]oxazin-6-yl)-1-oxa-3,8-diazaspiro[4.5]decan-8-yl]methyl]indan-5-yl]-2-(dimethylamino)propanamide]
0.25 (≈ 0.463 µM)	O=C1COc2ncc(N3CC(CCNCC4Cc5cc(NC(=O)[C@@H]6CCCN6)cc(F)c5C4)OC3=O)nc2N1 (stereo partly drawn) [Example 36, (2S)—N-[7-Fluoro-2-[[2-[2-oxo-3-(3-oxo-4H-pyrazino[2,3-b][1,4]oxazin-6-yl)oxazolidin-5-yl]ethylamino]methyl]indan-5-yl]pyrrolidine-2-carboxamide]
0.5 (≈ 0.9 µM)	O=C1COc2ncc(N3CC(CCNCC4Cc5cc(NC(=O)[C@@H]6C[C@@H](O)CN6)cc(F)c5C4)OC3=O)nc2N1 (stereo partly drawn) [Example 37, (2S,4R)-N-[7-fluoro-2-[[2-[2-oxo-3-(3-oxo-4H-pyrazino[2,3-b][1,4]oxazin-6-yl)oxazolidin-5-yl]ethylamino]methyl]indan-5-yl]-4-hydroxy-pyrrolidine-2-carboxamide]
0.5 (≈ 0.944 µM)	N[C@H](CO)C(=O)Nc1cc(F)c2c(c1)CC(CNCCC1CN(c3cnc4c(n3)NC(=O)CO4)C(=O)O1)C2 (stereo partly drawn) [Example 38, (2R)-2-amino-N-[7-fluoro-2-[[2-[2-oxo-3-(3-oxo-4H-pyrazino[2,3-b][1,4]oxazin-6-yl)oxazolidin-5-yl]ethylamino]methyl]indan-5-yl]-3-hydroxy-propanamide]
0.25	N[C@]1(C(=O)Nc2cc(F)c3c(c2)CC(CNCCC2CN(c4cnc5c(n4)NC(=O)CO5)C(=O)O2)C3)CCOC1.O=C(O)C(F)(F)F (stereo partly drawn) [Example 40, (3R)-3-amino-N-[7-fluoro-2-[[2-[2-oxo-3-(3-oxo-4H-pyrazino[2,3-b][1,4]oxazin-6-yl)oxazolidin-5-yl]ethylamino]methyl]indan-5-yl]tetrahydrofuran-3-carboxamide; 2,2,2-trifluoroacetic acid]
1 (≈ 1.76 µM)	CO[C@H]1CN[C@H](C(=O)Nc2cc(F)c3c(c2)CC(CNCCC2CN(c4cnc5c(n4)NC(=O)CO5)C(=O)O2)C3)C1 (stereo partly drawn) [Example 44, (2S,4R)-N-[7-fluoro-2-[[2-[2-oxo-3-(3-oxo-4H-pyrazino[2,3-b][1,4]oxazin-6-yl)oxazolidin-5-yl]ethylamino]methyl]indan-5-yl]-4-methoxy-pyrrolidine-2-carboxamide]
1 (≈ 1.8 µM)	O=C1COc2ncc(N3CC(CCNCC4Cc5cc(NC(=O)[C@H]6C[C@@H](O)CN6)cc(F)c5C4)OC3=O)nc2N1 (some centres unmarked) [Example 45]
0.25 (≈ 0.45 µM)	O=C1COc2ncc(N3CC(CCNCC4Cc5cc(NC(=O)[C@H]6C[C@H](O)CN6)cc(F)c5C4)OC3=O)nc2N1 (stereo partly drawn) [Example 47, (2R,4S)-N-[7-fluoro-2-[[2-[2-oxo-3-(3-oxo-4H-pyrazino[2,3-b][1,4]oxazin-6-yl)oxazolidin-5-yl]ethylamino]methyl]indan-5-yl]-4-hydroxy-pyrrolidine-2-carboxamide]
0.25 (≈ 0.439 µM)	CN1C[C@H](O)C[C@H]1C(=O)Nc1cc(F)c2c(c1)CC(CNCCC1CN(c3cnc4c(n3)NC(=O)CO4)C(=O)O1)C2 (stereo partly drawn) [Example 49, (2S,4R)—N-[7-Fluoro-2-[[2-[2-oxo-3-(3-oxo-4H-pyrazino[2,3-b][1,4]oxazin-6-yl)oxazolidin-5-yl]ethylamino]methyl]indan-5-yl]-4-hydroxy-1-methyl-pyrrolidine-2-carboxamide]
